According to US20240390512A1, “METHODS OF TREATING CHEMOTHERAPY-RESISTANT CANCER WITH AN ANTIBODY-DRUG CONJUGATE” (DAIICHI SANKYO COMPANY, LIMITED, priority 2021, published 2024):
Read-outs that look alike come from different tables or passages of the source.

Key:
[1] = test system: Human ovarian cancer cell line NIH:OVCAR-3; assay: Antitumor study (1), combination with carboplatin, NIH:OVCAR-3 xenograft; conditions: Day 21; ADC (1) 0.3 mg/kg iv Day 0, carboplatin 50 mg/kg iv Day 0
Procedure: Human ovarian cancer cell line NIH:OVCAR-3, which was purchased from ATCC, was suspended into Matrigel (Corning Inc.), subcutaneously transplanted at 1.0×10^7 cells into the right side of female nude mice, and the mice were randomly grouped 24 days after the transplantation (Day 0). The antibody-drug conjugate (1) (formula 4) (DAR: 7.9) was intravenously administered to the tail vein at a dose of 0.3 mg/kg on Day 0. […] Single administration groups of each drug, a combined administration group, and a solvent administration group as a control group were set up.

[2] = test system: Human ovarian cancer cell line OV-90; assay: Antitumor study (2), combination with carboplatin, OV-90 xenograft; conditions: Day 21; ADC (1) 1 mg/kg iv Day 0, carboplatin 50 mg/kg iv Day 0
Text: Human ovarian cancer cell line OV-90, which was purchased from ATCC, was suspended into Matrigel (Corning Inc.), subcutaneously transplanted at 2.5×10^6 cells into the right side of female nude mice, and the mice were randomly grouped 14 days after the transplantation (Day 0). […] Single administration groups of each drug, a combined administration group, and a solvent administration group as a control group were set up.

[3] = test system: Human ovarian cancer cell line OV-90; assay: Antitumor study (4), combination with gemcitabine, OV-90 xenograft; type: in vivo, mouse; conditions: Day 21; ADC (1) 3 mg/kg iv Day 0, gemcitabine 15 mg/kg iv Day 0, 7, 14
Procedure: (§1) Measurement and calculation formula: In the study, the major axis and minor axis of tumors were measured up to 3 times a week with an electronic digital caliper (CD15-CX, Mitutoyo Corp.), and the tumor volume (mm^3) was calculated. The calculation formula is as shown below.

[4] = test system: Human ovarian cancer cell line OV-90; type: in vivo, mouse; conditions: Day 15; ADC (1) 10 mg/kg iv Day 0, carboplatin 50 mg/kg iv Day 0, paclitaxel 20 mg/kg iv Day 1
Procedure: Measurement and calculation formula: In the study, the major axis and minor axis of tumors were measured twice a week with an electronic digital caliper (CD15-CX, Mitutoyo Corp.), and the tumor volume (mm^3) was calculated. The calculation formula is as shown below.

[5] = test system: Human ovarian cancer cell line NIH:OVCAR-3; assay: In vivo antitumor effect after long-term treatment of carboplatin and paclitaxel, NIH:OVCAR-3 xenograft; set-up: species or system mouse; conditions: carboplatin 50 mg/kg and paclitaxel 30 mg/kg iv
Procedure: as §1, with “below. Tumor volume (mm^3)=½×Major axis (mm)×[Minor axis (mm)]^2.” for “below.”
Carboplatin was diluted with physiological saline, and intravenously administered to the tail vein in a fluid volume of 10 mL/kg. Paclitaxel was dissolved with cremophor and ethanol (1:1), diluted with physiological saline, and then intravenously administered to the tail vein in a fluid volume of 10 mL/kg. The antibody-drug conjugate (formula 4) was diluted with ABS buffer (10 mM acetate buffer [pH 5.5], 5% sorbitol), and intravenously administered to the tail vein in a fluid volume of 10 mL/kg.
For clarity, the antibody comprised in the antibody-drug conjugate (1) administered is referred as “H01L02” in the present invention.

With `N.N.O=C([O-])C1(C(=O)[O-])CCC1.[Pt+2]` [carboplatin] the “tumor growth inhibition (TGI)” value [1] was 47% and the TGI [2] was 23%.
`Nc1ccn([C@@H]2O[C@H](CO)[C@@H](O)C2(F)F)c(=O)n1` [gemcitabine] was tested, and the TGI [3] was 23%.
With carboplatin and paclitaxel the TGI [4] was 65%, the “tumor response to the first dosing” value ([5]; 12 mice) was “the tumor regressed in all cases” and the “time to tumor regrowth after the first dosing” value ([5]; regrowth in all most cases) was ≤ 6 weeks.
